Like-named read-outs stand apart in the source and are kept apart here. Where a SMILES comes first, the peptide text is derived from it.
What was measured:
[1] = Taste profiling of lemon/lime carbonates and colas; type: in vivo; conditions: HFCS 10%, aspartame 500 ppm, sucralose 200 ppm, blends 30.8 ppm/5.0%; for Average Score: score 1, poor-5, good, sucrose 10%
Method: Cola and lemon/lime beverages were prepared using the following formulations and sweetened with sucrose, HFCS (55% fructose), aspartame, sucralose, monatin (racemic mix described in Example 14), monatin/sucrose, or monatin/HFCS. One part of syrup was added to 5.5 parts carbonated water and evaluated.
Assessments were carried out ‘double blind’ by a panel of trained tasters. The sucrose-sweetened product was identified as the control and all other products randomly coded. Panelists were asked to assess the randomly coded sample relative to the control for the following attributes:
Panelists also were asked assign a score (1; poor-5; good) for the quality of the sweetener system. A summary of the comments generated together with the average score awarded is presented in Tables 12 and 13 for lemon/lime carbonates and colas, respectively. […] Blends of monatin/carbohydrate rated higher. In the cola, monatin was similar to aspartame.

[2] = Sensory evaluation of soft drinks (lemon/lime, orangeade, cola); type: in vivo; conditions: Lemon/lime soft drink; aspartame 500 ppm, sucralose 200 ppm, R,R monatin 42 ppm
Method: Beverages (cola, lemon-lime and orange) were formulated and sweetened with aspartame, sucralose or R,R monatin. Qualitative evaluation was carried out.
The term “throw” refers to dilution in water. For example, a throw of “1+4” means 1 part concentrate formulation to 4 parts water. Thus, if a concentrate formulation includes 0.021% wt/vol (i.e., 210 ppm) of R,R monatin, for example, a throw of 1+4 makes a diluted beverage containing 42 ppm (210 ppm/5) R,R monatin.
Final ready-to-drink beverages (after throw) contained sweetener concentrations as follows:
Evaluation of these soft drinks was carried out by a panel (n=6) of assessors who evaluated each set of drinks on separate tasting occasions.

[3] = Sensory stability of monatin and aspartame at pH 2.5, 3.0, 4.0 at 40° C.; type: physicochemical; conditions: for Rate constant (k) of sweetness loss / half-life: pseudo-first order assumed; for SEV / Retention of Sweetness: stored 40° C., monatin ~55 ppm, aspartame 400 ppm; for half-life: phosphate/citrate buffer, read-out: Half-life (t½) of sweetness loss (converted)
Method: The sensory stability of monatin solutions prepared at pH 2.5, 3.0 and 4.0 and stored at 40° C. was monitored for 100 days. Loss of sweetness from these solutions was compared with the losses of sweetness from aspartame solutions prepared and stored under identical conditions.
The sensory stability of monatin (8% SEV, ˜55 ppm, synthetic blend containing approximately 96% of the 2R,4R/2S, 4S enantiometric pair and 4% of the 2R,4S/2S,4R enantiometric pair) in phosphate/citrate buffers having a pH of 2.5, 3.0, and 4.0 was examined after storage at 40° C. The stability of monatin was compared to that of aspartame (400 ppm) in the same buffers. Three sucrose reference solutions were prepared in the same phosphate/citrate buffers as the monatin and aspartame solutions. All prepared solutions were stored in the dark.
Buffer compositions: pH 2.5 Phosphoric acid (75% solution) 0.127% (w/v) Tri-sodium citrate monohydrate 0.005% (w/v) • pH 3.0 Phosphoric acid (75% solution) 0.092% (w/v) Tri-sodium citrate monohydrate 0.031% (w/v) • pH 4.0 Phosphoric acid (75% solution) 0.071% (w/v) Tri-sodium citrate monohydrate 0.047% (w/v)
The sweetness of each sweetener relative to sucrose was assessed in duplicate by a panel (n=8) of trained sensory evaluators experienced in the sweetness estimation procedure. All samples (in the same buffers) were served in duplicate at a temperature of 22° C.±1° C. Monatin (test) solutions, coded with 3 digit random number codes were presented individually to panelists, in random order. Sucrose reference standards, ranging from 4.0-10.0% (w/v) sucrose, increasing in steps of 0.5% (w/v) sucrose were also provided. Panelists were asked to estimate sweetness by comparing the sweetness of the test solution to the sucrose standards. This was carried out by taking 3 sips of the test solution, followed by a sip of water, followed by 3 sips of sucrose standard followed by a sip of water, etc. Panelists were encouraged to estimate the sweetness to one decimal place, e.g., 6.8, 8.5. A five minute rest period was imposed between evaluating the test solutions. Panelists were also asked to rinse well and eat a cracker to reduce any potential carry over effects.
If a pseudo-first order breakdown reaction is assumed, a plot of logn percentage retention versus time (logn%RTN v. t) allows estimation of the half-life (t½) and rate constant (k) of sweetness loss under any given set of conditions. In so doing, the kinetics of monatin and aspartame sweetness loss may be summarized as follows in Table 25.

[4] = cola, sucrose 10% (control), monatin 80 ppm
[5] = lemon/lime carbonate, sucrose 10% (control), monatin 67 ppm

## COC(=O)[C@H](Cc1ccccc1)NC(=O)[C@@H](N)CC(=O)O [Aspartame, aspartame] (H-Asp-Phe-OMe)
[1]; [4]
  Aftertaste: Lingering sweetness
  Flavor Profile: Sweet flavor, flatter
  Mouthfeel: Thinner mouthfeel
  Sweetness Profile: Delayed sweetness
[1]; [5]
  Flavor Profile: Slightly lacking upfront.
  Sweetness Profile: Sweetness onset quite
[1]; cola, monatin 80 ppm
  Average Score: 3.3
[1]; lemon/lime carbonate, monatin 67 ppm
  Average Score: 4.0
[2]
  Comments (sensory evaluation): Balanced sweetness/acidity profile. Very
[3]; after 100 days storage at pH 2.5 at 40° C.
  Sweetness Retained: 11%
[3]; after 100 days storage at pH 3.0 at 40° C.
  Sweetness Retained: 31%
[3]; after 100 days storage at pH 4.0 at 40° C.
  Sweetness Retained: 58%
[3]; pH 2.5, 40° C.
  Rate constant (k) of sweetness loss: 0.013 day⁻¹
  half-life: 55 days
[3]; pH 2.5 buffer, day 0
  SEV: 7.34 % sucrose
[3]; pH 2.5 buffer, day 1
  Retention of Sweetness: 94.0%
  SEV: 6.90 % sucrose
[3]; pH 2.5 buffer, day 2
  Retention of Sweetness: 92.6%
  SEV: 6.80 % sucrose
[3]; pH 2.5 buffer, day 3
  Retention of Sweetness: 89.9%
  SEV: 6.60 % sucrose
[3]; pH 2.5 buffer, day 4
  Retention of Sweetness: 85.7%
  SEV: 6.29 % sucrose
[3]; pH 2.5 buffer, day 7
  Retention of Sweetness: 81.9%
  SEV: 6.01 % sucrose
[3]; pH 2.5 buffer, day 8
  Retention of Sweetness: 81.5%
  SEV: 5.98 % sucrose
[3]; pH 2.5 buffer, day 9
  Retention of Sweetness: 81.3%
  SEV: 5.97 % sucrose
[3]; pH 2.5 buffer, day 11
  Retention of Sweetness: 79.8%
  SEV: 5.86 % sucrose
[3]; pH 2.5 buffer, day 50
  Retention of Sweetness: 57.1%
  SEV: 4.19 % sucrose
[3]; pH 2.5 buffer, day 100
  Retention of Sweetness: 10.9%
  SEV: 0.80 % sucrose
[3]; pH 3.0, 40° C.
  Rate constant (k) of sweetness loss: 0.009 day⁻¹
  half-life: 75 days
[3]; pH 3.0 buffer, day 0
  SEV: 7.15 % sucrose
[3]; pH 3.0 buffer, day 1
  Retention of Sweetness: 96.5%
  SEV: 6.90 % sucrose
[3]; pH 3.0 buffer, day 2
  Retention of Sweetness: 96.1%
  SEV: 6.87 % sucrose
[3]; pH 3.0 buffer, day 3
  Retention of Sweetness: 92.3%
  SEV: 6.60 % sucrose
[3]; pH 3.0 buffer, day 4
  Retention of Sweetness: 89.9%
  SEV: 6.43 % sucrose
[3]; pH 3.0 buffer, day 7
  Retention of Sweetness: 86.3%
  SEV: 6.17 % sucrose
[3]; pH 3.0 buffer, day 8
  Retention of Sweetness: 82.9%
  SEV: 5.93 % sucrose
[3]; pH 3.0 buffer, day 9
  Retention of Sweetness: 83.1%
  SEV: 5.94 % sucrose
[3]; pH 3.0 buffer, day 11
  Retention of Sweetness: 81.5%
  SEV: 5.83 % sucrose
[3]; pH 3.0 buffer, day 50
  Retention of Sweetness: 65.9%
  SEV: 4.71 % sucrose
[3]; pH 3.0 buffer, day 100
  Retention of Sweetness: 30.8%
  SEV: 2.20 % sucrose
[3]; pH 4.0, 40° C.
  Rate constant (k) of sweetness loss: 0.005 day⁻¹
  half-life: 140 days
[3]; pH 4.0 buffer, day 0
  SEV: 7.10 % sucrose
[3]; pH 4.0 buffer, day 3
  Retention of Sweetness: 95.1%
  SEV: 6.75 % sucrose
[3]; pH 4.0 buffer, day 8
  Retention of Sweetness: 87.8%
  SEV: 6.23 % sucrose
[3]; pH 4.0 buffer, day 11
  Retention of Sweetness: 84.8%
  SEV: 6.02 % sucrose
[3]; pH 4.0 buffer, day 17
  Retention of Sweetness: 81.0%
  SEV: 5.75 % sucrose
[3]; pH 4.0 buffer, day 24
  Retention of Sweetness: 82.4%
  SEV: 5.85 % sucrose
[3]; pH 4.0 buffer, day 50
  Retention of Sweetness: 74.5%
  SEV: 5.29 % sucrose
[3]; pH 4.0 buffer, day 100
  Retention of Sweetness: 57.7%
  SEV: 4.10 % sucrose
